We go through 33 molecules from patent publication US20210238139A1, “MODULATORS OF TRYPTOPHAN CATABOLISM” (E-Therapeutics PLC, priority 2018, published 2021).

For this test, the system named is SK-OV-3 cells. The test is described as follows: Effect of compounds on tryptophan catabolism in SK-OV-3 cell line (inhibition of kynurenine production, LC-MS/MS). Type of test: cell-based. The note with it: SK-OV-3 cell line, 24 h incubation, kynurenine in supernatant by LC-MS/MS, read-out: IC50 Ranges (ic50 values for inhibition of Kynurenine production). In outline:
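Cells seeded overnight in McCoy's 5A/10% FBS, then switched to DMEM F-12 with 6 mg/mL L-tryptophan; compounds added at 8 3-fold dilutions from 30 μM, in duplicate, 24 h at 37 °C. Supernatant kynurenine measured by LC-MS/MS; ATP-based viability run in parallel; IC50 from % inhibition of Kyn production.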

Read-outs that look alike come from different tables or passages of the source.

For orientation: IC50 means the concentration that inhibits the measured activity by half. On to `Cc1ccc(CN(C(=O)Nc2ccc(C#Cc3ccccc3)cc2)C2CCCC2)o1` [Compound 155, 1-cyclopentyl-1-[(5-methyl-2-furyl)methyl]-3-[4-(2-phenylethynyl)phenyl]urea], for which the half-maximal inhibitory concentration (IC50) (Homo sapiens, SK-OV-3, 24 h) lay in the range of 500 to 1000 nM.
On the same count and under the same terms, under `Cc1ccc(CN(C(=O)Nc2ccc(C#N)cc2)c2cnoc2)o1` [Compound 304, 3-(4-cyanophenyl)-1-isoxazol-4-yl-1-[(5-methyl-2-furyl)methyl]urea] stands 100 to 500 nM; under `Cc1nocc1N(CC1CCC2(CC1)COC2)C(=O)Nc1ccc(Cl)cc1` [Compound 326, 3-(4-chlorophenyl)-1-(3-methylisoxazol-4-yl)-1-(2-oxaspiro[3.5]nonan-7-ylmethyl)urea], more than 5000 nM.
For the molecule `O=C(Nc1ccccc1)N(Cc1cccs1)C1CCCC1` [Compound 19, 1-cyclopentyl-3-phenyl-1-(2-thienylmethyl)urea], the IC50 was 500 to 1000 nM.
`COc1cc(NC(=O)N(Cc2ccc(C)o2)C2CCCC2)ccc1C#N` [Compound 205]: where the note is “Homo sapiens, SK-OV-3, 24 h”, the IC50 is 100 to 500 nM.
With `O=C(Nc1ccc2c(c1)CCC2)N(Cc1cccs1)C1CCCC1` [Compound 9, 1-cyclopentyl-3-indan-5-yl-1-(2-thienylmethyl)urea], the 50% inhibitory concentration (IC50) (Homo sapiens, SK-OV-3, 24 h) was in the range of 1000 to 5000 nM.
With `C#Cc1ccc(NC(=O)N(Cc2ccc(C)o2)C2CCN(C)CC2)cc1` [Compound 258, 3-(4-ethynylphenyl)-1-[(5-methyl-2-furyl)methyl]-1-(1-methyl-4-piperidyl)urea], the IC50 (Homo sapiens, SK-OV-3, 24 h) is more than 5000 nM.
On the same count and under the same terms, under `O=C(Nc1ccc(C#CCO)cc1)N(Cc1ccnc(C(F)(F)F)c1)C1CCC1` [Compound 296, 1-cyclobutyl-3-[4-(3-hydroxyprop-1-ynyl)phenyl]-1-[[2-(trifluoromethyl)-4-pyridyl]methyl]urea] stands 100 to 500 nM; under `CC1(CN(C(=O)Nc2ccc(F)cc2)C2CCCC2)CCNCC1` [Compound 86, 1-cyclopentyl-3-(4-fluorophenyl)-1-[(4-methyl-4-piperidyl)methyl]urea], 1000 to 5000 nM; under `Cc1ccc(CN(C(=O)Nc2ccccc2)C2CCCC2)s1` [Compound 24, 1-cyclopentyl-1-[(5-methyl-2-thienyl)methyl]-3-phenyl-urea], more than 5000 nM.
Take `N#Cc1cc(CN(C(=O)Nc2ccccc2)C2CCCC2)ccc1F` [Compound 50, 1-[(3-cyano-4-fluoro-phenyl)methyl]-1-cyclopentyl-3-phenyl-urea]: the IC50 (Homo sapiens, SK-OV-3, 24 h) fell in the range of 100 to 500 nM.
Regarding `CCc1ccc(NC(=O)N(Cc2ccc(C)s2)C2CCCC2)cc1` [Compound 25, 1-cyclopentyl-3-(4-ethylphenyl)-1-[(5-methyl-2-thienyl)methyl]urea], for the setting “Homo sapiens, SK-OV-3, 24 h”, the IC50 fell in the range of 100 to 500 nM.
In the case of `CCc1ccc(CN(C(=O)Nc2ccc(C#N)cc2)C2CCCC2)o1` [Compound 295, 3-(4-cyanophenyl)-1-cyclopentyl-1-[(5-ethyl-2-furyl)methyl]urea], the IC50 (Homo sapiens, SK-OV-3, 24 h) was less than 100 nM.
With `Cc1oc(-c2ccccc2)nc1CNC(=O)Nc1ccccc1` [Compound 203, 1-[(5-methyl-2-phenyl-oxazol-4-yl)methyl]-3-phenyl-urea], the IC50 (Homo sapiens, SK-OV-3, 24 h) lay within 1000 to 5000 nM.
For `CC(c1ccccn1)N(C(=O)Nc1ccc(Cl)cc1)C1CCCC1` (racemic) [Compound 174, 3-(4-chlorophenyl)-1-cyclopentyl-1-[1-(2-pyridyl)ethyl]urea], the IC50 (Homo sapiens, SK-OV-3, 24 h) lay within 100 to 500 nM.
Turning to `O=C(Nc1ccccc1)N(Cc1ccccc1Cl)C1CCCC1` [Compound 38, 1-[(2-chlorophenyl)methyl]-1-cyclopentyl-3-phenyl-urea], the IC50 (Homo sapiens, SK-OV-3, 24 h) is 500 to 1000 nM.
As to `N#Cc1ccc(NC(=O)N(Cc2ccnc(C(F)(F)F)c2)C2CCC2)cc1` [Compound 152, 3-(4-cyanophenyl)-1-cyclobutyl-1-[[2-(trifluoromethyl)-4-pyridyl]methyl]urea], where the note is “Homo sapiens, SK-OV-3, 24 h”, the IC50 is 100 to 500 nM.
As for `O=C(NCc1ccc(F)cc1)N(Cc1cccs1)C1CCCC1` [Compound 8, 1-cyclopentyl-3-[(4-fluorophenyl)methyl]-1-(2-thienylmethyl)urea], the concentration for half-maximal inhibition (IC50) (Homo sapiens, SK-OV-3, 24 h) was more than 5000 nM.
For `O=C(Nc1ccc(F)cc1)N(Cc1ccno1)C1CCCC1` [Compound 127, 1-cyclopentyl-3-(4-fluorophenyl)-1-(isoxazol-5-ylmethyl)urea], the IC50 (Homo sapiens, SK-OV-3, 24 h) is more than 5000 nM.
As for `CC(c1cccc(C#N)c1)N(C(=O)Nc1ccc(F)cc1)C1CCC1` (racemic) [Compound 189, 1-[1-(3-cyanophenyl)ethyl]-1-cyclobutyl-3-(4-fluorophenyl)urea], the IC50 (Homo sapiens, SK-OV-3, 24 h) was in the range of 100 to 500 nM.
On to `O=C(Nc1ccccc1)N(Cc1cccnc1)C1CCCC1` [Compound 65, 1-cyclopentyl-3-phenyl-1-(3-pyridylmethyl)urea], for which the IC50 (Homo sapiens, SK-OV-3, 24 h) lay in the range of 1000 to 5000 nM.
For `Cc1ccc(CN(C(=O)Nc2ccc(-c3cn[nH]c3)cc2)C2CCCC2)o1` [Compound 108, 1-cyclopentyl-1-[(5-methyl-2-furyl)methyl]-3-[4-(1H-pyrazol-4-yl)phenyl]urea], under “Homo sapiens, SK-OV-3, 24 h”, the IC50 was in the range of 100 to 500 nM.
Same read-out and setting: under `Cc1ccc(CN(C(=O)Nc2ccc(Cl)cc2)C2CCCC2C#N)o1` (stereo not drawn) [Compound 227, 3-(4-chlorophenyl)-1-(2-cyanocyclopentyl)-1-[(5-methyl-2-furyl)methyl]urea] stands less than 100 nM; under `Cc1ccc(CN(C(=O)Nc2ccccc2)C2CCC2)o1` [Compound 178, 1-cyclobutyl-1-[(5-methyl-2-furyl)methyl]-3-phenyl-urea], 1000 to 5000 nM.
For the molecule `O=C(Nc1ccc(Cl)cc1)N(Cc1nc2c(s1)COCC2)C1CCCC1` [Compound 311, 3-(4-chlorophenyl)-1-cyclopentyl-1-(6,7-dihydro-4H-pyrano[4,3-d]thiazol-2-ylmethyl)urea], the half-maximal inhibitory concentration (IC50) (Homo sapiens, SK-OV-3, 24 h) lay in the range of 100 to 500 nM.
For the molecule `CCc1ccc(NC(=O)N(Cc2ccccc2Cl)C2CCCC2)cc1` [Compound 39, 1-[(2-chlorophenyl)methyl]-1-cyclopentyl-3-(4-ethylphenyl)urea], the IC50 (Homo sapiens, SK-OV-3, 24 h) was more than 5000 nM.
`O=C(Nc1ccc(Cl)cc1)N(Cc1cc2ncccc2o1)C1CCC1` [Compound 252, 3-(4-chlorophenyl)-1-cyclobutyl-1-(furo[3,2-b]pyridin-2-ylmethyl)urea]: where the note is “Homo sapiens, SK-OV-3, 24 h”, the concentration for half-maximal inhibition (IC50) is more than 5000 nM.
Take `O=C(Nc1ccccc1F)N(Cc1cccs1)C1CCCC1` [Compound 54, 1-cyclopentyl-3-(2-fluorophenyl)-1-(2-thienylmethyl)urea]: under “Homo sapiens, SK-OV-3, 24 h”, the IC50 was 1000 to 5000 nM.
Consider `O=C(Nc1ccc(Cl)cc1)N(Cc1cccnc1)C1CCCC1` [Compound 66, 3-(4-chlorophenyl)-1-cyclopentyl-1-(3-pyridylmethyl)urea], for which the IC50 (Homo sapiens, SK-OV-3, 24 h) fell in the range of 100 to 500 nM.
As for `O=C(NCc1sccc1Cl)Nc1cccc(Cl)c1` [Compound 204, 1-(3-chlorophenyl)-3-[(3-chloro-2-thienyl)methyl]urea], the half-inhibitory concentration (IC50) (Homo sapiens, SK-OV-3, 24 h) is more than 5000 nM.
As to `Cc1ccc(CN(C(=O)Nc2ccc(Cl)cc2)c2cnn(C)c2)o1` [Compound 225, 3-(4-chlorophenyl)-1-[(5-methyl-2-furyl)methyl]-1-(1-methylpyrazol-4-yl)urea], the IC50 (Homo sapiens, SK-OV-3, 24 h) was 100 to 500 nM.
`Cc1ccc(CN(C(=O)Nc2nnc(-c3cccs3)o2)C2CCCC2)o1` [Compound 168, 1-cyclopentyl-1-[(5-methyl-2-furyl)methyl]-3-[5-(2-thienyl)-1,3,4-oxadiazol-2-yl]urea]: the IC50 (Homo sapiens, SK-OV-3, 24 h) was 500 to 1000 nM.
Turning to `O=C(Nc1ccc(F)c(F)c1)N(Cc1ccccn1)C1CCCCC1` [Compound 33, 1-cyclohexyl-3-(3,4-difluorophenyl)-1-(2-pyridylmethyl)urea], the IC50 (Homo sapiens, SK-OV-3, 24 h) was more than 5000 nM.
